Measured values reported in the supplement of paper PMC10307832.

Experiments:
Test in all cases: relative viability (nuclei count vs DMSO), 5 days (fraction); higher = more cells survive
[1] = test system: NCI-H520
In short: (§1)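 Lung cancer cell lines were seeded in 1536-well plates and dosed by pin tool the next day, with either a single drug or a fixed anchor-drug dose combined with five library-drug doses (not always all listed) spaced in √10 steps. Five days later, one step fixed the cells and stained their nuclei (final 0.05% Triton X-100, 1% formaldehyde, 1 ug/ml Hoechst), and nuclei were counted on 4× images. Relative viability is the nuclei count in treated wells divided by the count in vehicle wells, and each value is the median of duplicate plates.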

[2] = test system: H3255
In short: as §1

[3] = test system: HCC-15
In short: as §1

[4] = test system: LC-2-ad
In short: as §1

[5] = test system: LU99A
In short: as §1

[6] = test system: NCI-H3122
In short: as §1

[7] = test system: NCI-H1734
In short: as §1

[8] = test system: HARA
In short: as §1

[9] = test system: NCI-H1993
In short: as §1

[10] = test system: NCI-H1666
In short: as §1

[11] = test system: PC-3 [JPC-3]
In short: as §1

[12] = test system: NCI-H647
In short: as §1

[13] = test system: HCC-366
In short: as §1

[14] = test system: SK-LU-1
In short: as §1

[15] = test system: NCI-H2228
In short: as §1

[16] = test system: NCI-H1975
In short: as §1

[17] = test system: NCI-H1944
In short: as §1

[18] = test system: NCI-H661
In short: as §1

[19] = test system: NCI-H838
In short: as §1

[20] = test system: CAL-12T
In short: as §1

[21] = test system: NCI-H1395
In short: as §1

[22] = test system: PC-14
In short: as §1

[23] = test system: COR-L 105
In short: as §1

O=c1[nH]c2ccccc2n1C1CCN(CCCC(c2ccc(F)cc2)c2ccc(F)cc2)CC1 [Pimozide] + N=C(N)NC(=N)NCCc1ccccc1 [Phenformin] (partner 250 µM)
relative viability ([1]; first compound 0.08 µM): 0.724 | relative viability ([1]; first compound 0.253 µM): 0.615 | relative viability ([1]; first compound 0.8 µM): 0.613 | relative viability ([1]; first compound 2.53 µM): 0.623 | relative viability ([1]; first compound 8 µM): 0.678 | relative viability ([2]; first compound 0.253 µM): 0.37 | relative viability ([2]; first compound 0.8 µM): 0.387 | relative viability ([2]; first compound 2.53 µM): 0.372 | relative viability ([2]; first compound 8 µM): 0.4 | relative viability ([3]; first compound 0.08 µM): 0.511 | relative viability ([3]; first compound 0.253 µM): 0.431 | relative viability ([3]; first compound 0.8 µM): 0.432 | relative viability ([3]; first compound 2.53 µM): 0.433 | relative viability ([3]; first compound 8 µM): 0.448 | relative viability ([4]; first compound 0.08 µM): 0.573 | relative viability ([4]; first compound 0.253 µM): 0.558 | relative viability ([4]; first compound 0.8 µM): 0.571 | relative viability ([4]; first compound 2.53 µM): 0.623 | relative viability ([4]; first compound 8 µM): 0.605 | relative viability ([5]; first compound 0.08 µM): 0.803 | relative viability ([5]; first compound 0.253 µM): 0.837 | relative viability ([5]; first compound 0.8 µM): 0.573 | relative viability ([5]; first compound 2.53 µM): 0.765 | relative viability ([5]; first compound 8 µM): 0.897 | relative viability ([6]; first compound 0.08 µM): 0.372 | relative viability ([6]; first compound 0.253 µM): 0.362 | relative viability ([6]; first compound 0.8 µM): 0.393 | relative viability ([6]; first compound 2.53 µM): 0.343 | relative viability ([6]; first compound 8 µM): 0.312 | relative viability ([7]; first compound 0.08 µM): 0.408 | relative viability ([7]; first compound 0.253 µM): 0.366 | relative viability ([7]; first compound 2.53 µM): 0.373 | relative viability ([7]; first compound 8 µM): 0.426 | relative viability ([8]; first compound 0.253 µM): 0.503 | relative viability ([8]; first compound 0.8 µM): 0.405 | relative viability ([8]; first compound 2.53 µM): 0.423 | relative viability ([8]; first compound 8 µM): 0.431 | relative viability ([9]; first compound 0.08 µM): 0.477 | relative viability ([9]; first compound 0.253 µM): 0.509 | relative viability ([9]; first compound 0.8 µM): 0.455 | relative viability ([9]; first compound 2.53 µM): 0.522 | relative viability ([9]; first compound 8 µM): 0.49 | relative viability ([10]; first compound 0.08 µM): 0.608 | relative viability ([10]; first compound 0.253 µM): 0.5 | relative viability ([10]; first compound 0.8 µM): 0.597 | relative viability ([10]; first compound 2.53 µM): 0.555 | relative viability ([10]; first compound 8 µM): 0.513 | relative viability ([11]; first compound 0.08 µM): 0.357 | relative viability ([11]; first compound 0.253 µM): 0.469 | relative viability ([11]; first compound 0.8 µM): 0.451 | relative viability ([11]; first compound 2.53 µM): 0.486 | relative viability ([11]; first compound 8 µM): 0.403 | relative viability ([12]; first compound 0.08 µM): 0.59 | relative viability ([12]; first compound 0.253 µM): 0.497 | relative viability ([12]; first compound 0.8 µM): 0.435 | relative viability ([12]; first compound 2.53 µM): 0.452 | relative viability ([12]; first compound 8 µM): 0.527 | relative viability ([13]; first compound 0.08 µM): 0.664 | relative viability ([13]; first compound 0.253 µM): 0.609 | relative viability ([13]; first compound 0.8 µM): 0.528 | relative viability ([13]; first compound 2.53 µM): 0.535 | relative viability ([13]; first compound 8 µM): 0.469 | relative viability ([14]; first compound 0.08 µM): 0.559 | relative viability ([14]; first compound 0.253 µM): 0.533 | relative viability ([14]; first compound 0.8 µM): 0.558 | relative viability ([14]; first compound 2.53 µM): 0.532 | relative viability ([14]; first compound 8 µM): 0.415 | relative viability ([15]; first compound 0.08 µM): 0.371 | relative viability ([15]; first compound 0.253 µM): 0.293 | relative viability ([15]; first compound 0.8 µM): 0.338 | relative viability ([15]; first compound 2.53 µM): 0.225 | relative viability ([15]; first compound 8 µM): 0.192 | relative viability ([16]; first compound 0.08 µM): 0.427 | relative viability ([16]; first compound 0.253 µM): 0.395 | relative viability ([16]; first compound 0.8 µM): 0.414 | relative viability ([16]; first compound 2.53 µM): 0.454 | relative viability ([16]; first compound 8 µM): 0.391 | relative viability ([17]; first compound 0.08 µM): 0.191 | relative viability ([17]; first compound 0.253 µM): 0.197 | relative viability ([17]; first compound 0.8 µM): 0.187 | relative viability ([17]; first compound 2.53 µM): 0.184 | relative viability ([17]; first compound 8 µM): 0.198 | relative viability ([18]; first compound 0.08 µM): 0.256 | relative viability ([18]; first compound 0.253 µM): 0.287 | relative viability ([18]; first compound 0.8 µM): 0.257 | relative viability ([18]; first compound 2.53 µM): 0.263 | relative viability ([18]; first compound 8 µM): 0.257 | relative viability ([19]; first compound 0.08 µM): 0.609 | relative viability ([19]; first compound 0.253 µM): 0.636 | relative viability ([19]; first compound 0.8 µM): 0.636 | relative viability ([19]; first compound 2.53 µM): 0.519 | relative viability ([19]; first compound 8 µM): 0.562 | relative viability ([20]; first compound 0.08 µM): 0.581 | relative viability ([20]; first compound 0.253 µM): 0.506 | relative viability ([20]; first compound 0.8 µM): 0.623 | relative viability ([20]; first compound 2.53 µM): 0.496 | relative viability ([20]; first compound 8 µM): 0.575 | relative viability ([21]; first compound 0.08 µM): 0.411 | relative viability ([21]; first compound 0.253 µM): 0.405 | relative viability ([21]; first compound 0.8 µM): 0.411 | relative viability ([21]; first compound 2.53 µM): 0.42 | relative viability ([21]; first compound 8 µM): 0.403 | relative viability ([22]; first compound 0.253 µM): 0.451 | relative viability ([22]; first compound 2.53 µM): 0.4 | relative viability ([22]; first compound 8 µM): 0.517 | relative viability ([23]; first compound 0.253 µM): 0.519 | relative viability ([23]; first compound 0.8 µM): 0.512 | relative viability ([23]; first compound 2.53 µM): 0.471 | relative viability ([23]; first compound 8 µM): 0.473
